Assay type in all cases: cell-based, rat
One experiment deals with cytochrome-c. In words: Western blotting of apoptotic protein cytochrome-c in cell lysates. Conditions: for amount of cytochrome-c: control 1.02±0.02; for cytochrome-c amounts: INS-1 cells, normalized to β-actin. Here is the method: (§1) Trypsin is applied to 75 cm^2 flask containing INS-1 […] beta cells and it is centrifuged in 1500 rpm for 15 minutes. According to the density of pellet formed after centrifuge, it is centrifuged at 4 °C in 1500 rpm for 5 minutes by providing the washing with pipetting with PBS and transferring into 2 ml eppendorf. The supernatant was removed, lysis buffer was added according to the density of pellet and pipetting is performed carefully. It was left for 30 minutes on the ice by vortexing in every 10 minutes. Then the cells were allowed to lysis by ultrasonication for 10 seconds for 5 times, keeping on ice for 10 seconds and they were centrifuged at 4 °C in 13000 rpm for 10 minutes. The supernatant occurred was taken to 0,2 ml eppendorf tubes, and they were taken to -86 °C temperature. These operations were repeated for 3 times for each of the control and experiment groups.
(§2) Bradford method was used in order to determine the protein content. First, a standard curve was formed by using BSA (bovine serum albumin) having a concentration of 1.46 mg/ml. This curve was prepared as following: Bradford solution was added into 80 µg/ml, 40 µg/ml, 20 µg/ml, 10 µg/ml BSA, their absorbance was measured in 595 nm, it was diluted in a way that the lysates are 1/100 and 160 µl was taken, their absorbance in the same wavelengths was determined. After absorbance/concentration graph of the standards was obtained, the concentrations of the samples whose concentrations are […] were determined by using the slope equation of this graph.
(§3) Protein bands separated by electrophoresis in gel were transferred from the gel into nitrocellulose membrane. After membrane transferring operation, transfer efficiency was controlled for 15 minutes by using Ponceau S painting solution.
(§4) The membrane wherein the proteins were transferred, was incubated at room temperature for 1 hour with blocking solution prepared with skimmed milk powder. The membranes were incubated with primary antibodies suitable diluting ratios (Table 1) for 1 night at +4 °C, following the blocking operation. Following this operation, washed membranes were treated with peroxidase marked goat anti-rabbit secondary IgGs (Santa Cruz, CA, USA, sc-2004) at room temperature for 1 hour. Following the treatment with secondary antibodies of membranes, they were washed with washing solution and shaken with pure water. Then, the specific protein bands were monitored by KodakGL1500 gel monitoring system, by chemiluminescence method using Western Blotting Luminol Reagent (Santa Cruz, CA, USA, sc-2048) chemiluminescence substrate. Their densitometric analysis were performed by "Kodak Molecular Imaging Systems" software. The statistical analysis between the bands were performed by normalizing the band densities of the protein samples whose densitometric analysis were performed, to the density of β-actin protein. Table 1: The primary antibodies used in Western blotting method, the dilution ratios and periods thereof
(§5) In order to determine the apoptosis dose, p 53, cytochrome-c and active caspase-3 protein amounts were determined by western blotting method by obtaining lysate from the cells in which 0.75, 1,1.75,2,2.5 and 3 mM palmitic acid were applied. The graph obtained from western blotting bands and the calculation performed as a result of the analysis of these bands is shown in Figure 3.
(§6) The amount of intracellular proteins such as p53, cytochrome-c and active caspase-3 were observed by western blotting in order to examine the effect of curaglutide on apoptosis stimulated by 2 mM palmitic acid in INS-1 beta cells.
(A western blot detects proteins with antibodies after separation by electrophoresis.)

Another experiment deals with LC3-II. Kind of experiment: Western blotting of autophagy marker LC3-II in cell lysates. As to conditions: for amount of intracellular LC3-II: control 0.44±0.00; for LC3-II amounts: INS-1 cells. Here is the method:
as §1, §2, §3, §4
In order to determine the autophagic dose, LC3-II protein amounts which are the autophagic markers were determined by western blotting method by obtaining lysate from the cells on which 0.75, 1, 1.75, 2, 2.5 and 3 mM palmitic acid was applied. The graph obtained from western blotting bands and the calculation performed as a result of the analysis of these bands is shown in Figure 2.
Intracellular LC3 protein amount was observed by western blotting in order to examine the effect of curaglutide on autophagy stimulated by 1,75 mM palmitic acid in INS-1 beta cells.

The subject of a further experiment is p53. Kind of experiment: Western blotting of apoptotic protein p53 in cell lysates. Conditions: for amount of intracellular p53: control 1.06±0.00; for p-53 amounts: INS-1 cells, normalized to β-actin. Here is the method: as §1, §2, §3, §4, §5, §6
The subject of the next experiment is active caspase-3. In words: Western blotting of apoptotic protein active caspase-3 in cell lysates. Conditions: for amount of active caspase-3: control 1.07±0.01; for active caspase-3 amounts: INS-1 cells, normalized to β-actin. Here is the method: as §1, §2, §3, §4, §5, §6
The mark [1] stands for this setting: 10 nM curaglutide as curative agent, 2 mM palmitic acid (apoptotic dose).
Where [2] appears, read: 10 nM curaglutide as protector against 2 mM palmitic acid (apoptotic dose).

Results on two molecules are retold here after patent EP3351262A1, “CURAGLUTIDE FOR IN TREATMENT OF PREDIABETES, DIABETES, OBESITY AND METABOLIC DISEASES ASSOCIATED THERETO” (Istanbul Universitesi Rektorlugu, priority 2016, dated 2018).

The structures appear in SMILES notation. Where “and” joins values, the source holds several entries; their conditions need not be identical. Equal values may be shown once.

As for `CC[C@H](C)[C@H](NC(=O)[C@H](Cc1ccccc1)NC(=O)[C@H](CCC(=O)O)NC(=O)[C@H](CCCCN)NC(=O)[C@H](C)NC(=O)[C@H](C)NC(=O)[C@H](CCC(N)=O)NC(=O)CNC(=O)[C@H](CCC(=O)O)NC(=O)[C@H](CC(C)C)NC(=O)[C@H](Cc1ccc(O)cc1)NC(=O)[C@H](CO)NC(=O)[C@H](CO)NC(=O)[C@@H](NC(=O)[C@H](CC(=O)O)NC(=O)[C@H](CO)NC(=O)[C@@H](NC(=O)[C@H](Cc1ccccc1)NC(=O)[C@@H](NC(=O)CNC(=O)[C@H](CCC(=O)O)NC(=O)[C@H](C)NC(=O)[C@H](Cc1c[nH]cn1)NC(C)=O)[C@@H](C)O)[C@@H](C)O)C(C)C)C(=O)N[C@@H](C)C(=O)N[C@@H](Cc1c[nH]c2ccccc12)C(=O)N[C@@H](CC(C)C)C(=O)N[C@H](C(=O)N[C@@H](CCCCN)C(N)=O)C(C)C` [curaglutide], the amount of cytochrome-c in the experiment on cytochrome-c (setting [1]) was determined as 0.67±0.07; in the experiment with cytochrome-c (setting [2]), 0.80±0.10. Also, the “amount of intracellular LC3-II” value in the experiment with LC3-II (10 nM curaglutide as curative agent, 1.75 mM palmitic acid (autophagic dose)) came to 0.32±0.00; in the experiment on LC3-II (10 nM curaglutide as protector, 1.75 mM palmitic acid (autophagic dose)), 0.29±0.00. Also, the entries for the “amount of intracellular p53” value in the experiment on p53 (setting [1]) and in the experiment with p53 (setting [2]) were 0.65±0.13 and 0.54±0.24, respectively. The “amount of active caspase-3” value in the experiment on active caspase-3 (setting [1]) is 0.54±0.00; in the experiment with active caspase-3 (setting [2]), 0.67±0.00.

Turning to `CCCCCCCCCCCCCCCC(=O)O` [palmitic acid], the cytochrome-c amounts was 1.07±0.02 in the experiment on cytochrome-c (0.75 mM palmitic acid, control 1.05±0.02); 1.06±0.01 with cytochrome-c (1 mM palmitic acid, control 1.05±0.02); 1.07±0.05 in the experiment with cytochrome-c (1.75 mM palmitic acid, control 1.05±0.02); 1.23±0.00 and 1.22±0.00 in the experiment on cytochrome-c (2 mM palmitic acid (apoptotic dose), control 1.05±0.02 / 1.02±0.02); 1.11±0.04 in the experiment with cytochrome-c (2.5 mM palmitic acid, control 1.05±0.02); 1.09±0.02 with cytochrome-c (3 mM palmitic acid, control 1.05±0.02). In addition, the LC3-II amounts with LC3-II (0.75 mM palmitic acid, band density normalized to β-actin, control 0.50±0.01) is 0.60±0.00; with LC3-II (1 mM palmitic acid, band density normalized to β-actin, control 0.50±0.01), 0.60±0.00; in the experiment with LC3-II (1.75 mM palmitic acid (autophagic dose), normalized to β-actin, control 0.50±0.01 / 0.44±0.00) it was 0.70±0.03 and 0.70±0.01; in the experiment with LC3-II (2 mM palmitic acid, band density normalized to β-actin, control 0.50±0.01) it was 0.52±0.02; in the experiment on LC3-II (2.5 mM palmitic acid, band density normalized to β-actin, control 0.50±0.01) it was 0.50±0.00; in the experiment on LC3-II (3 mM palmitic acid, band density normalized to β-actin, control 0.50±0.01), 0.49±0.01. The p-53 amounts with p53 (0.75 mM palmitic acid, control 1.04±0.00) was 1.1±0.00; with p53 (1 mM palmitic acid, control 1.04±0.00), 1.14±0.00; in the experiment on p53 (1.75 mM palmitic acid, control 1.04±0.00), 1.16±0.05; in the experiment on p53 (2 mM palmitic acid (apoptotic dose), control 1.04±0.00 / 1.06±0.00), 1.3±0.02 and 1.31±0.02; in the experiment with p53 (2.5 mM palmitic acid, control 1.04±0.00) it was 1.14±0.06; in the experiment with p53 (3 mM palmitic acid, control 1.04±0.00), 1.03±0.00. The “active caspase-3 amounts” value with active caspase-3 (0.75 mM palmitic acid, control 1.08±0.00) was 1.03±0.03; in the experiment with active caspase-3 (1 mM palmitic acid, control 1.08±0.00) it was 1.03±0.00; in the experiment on active caspase-3 (1.75 mM palmitic acid, control 1.08±0.00), 1.02±0.05; in the experiment on active caspase-3 (2 mM palmitic acid (apoptotic dose), control 1.08±0.00 / 1.07±0.01) it was 1.26±0.00 and 1.22±0.00; in the experiment on active caspase-3 (2.5 mM palmitic acid, control 1.08±0.00), 1.15±0.03; in the experiment with active caspase-3 (3 mM palmitic acid, control 1.08±0.00), 1.06±0.00.
